Test results as given in PubChem BioAssay (NCI).
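Assay format: 96-well plates, 48-hour exposure. Definition used: TGI = concentration required for complete inhibition of growth.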

Key:
Test in all cases: NCI anticancer screen, dose series, 48 h
[1] = system: 786-0 renal
[2] = system: A498 renal
[3] = system: A549 NSCLC
[4] = system: ACHN renal
[5] = system: BT-549 breast
[6] = system: CAKI-1 renal
[7] = system: CCRF-CEM leukemia
[8] = system: COLO 205 colon
[9] = system: DU-145 prostate
[10] = system: EKVX NSCLC
[11] = system: HCC-2998 colon
[12] = system: HCT-116 colon
[13] = system: HCT-15 colon
[14] = system: HL-60(TB) leukemia
[15] = system: HOP-92 NSCLC
[16] = system: HS 578T breast
[17] = system: HT29 colon
[18] = system: IGROV1 ovarian
[19] = system: K-562 leukemia
[20] = system: KM12 colon
[21] = system: LOX IMVI melanoma
[22] = system: M14 melanoma
[23] = system: MCF7 breast
[24] = system: MDA-MB-231 breast
[25] = system: MDA-MB-435
[26] = system: MDA-N
[27] = system: MOLT-4 leukemia
[28] = system: NCI-H226 lung
[29] = system: NCI-H23 lung
[30] = system: NCI-H460 lung
[31] = system: NCI-H522 lung
[32] = system: NCI/ADR-RES ovarian
[33] = system: OVCAR-3 ovarian
[34] = system: OVCAR-4 ovarian
[35] = system: OVCAR-5 ovarian
[36] = system: OVCAR-8 ovarian
[37] = system: PC-3 prostate
[38] = system: RPMI-8226 leukemia
[39] = system: SF-268 CNS
[40] = system: SF-295 CNS
[41] = system: SF-539 CNS
[42] = system: SK-MEL-2 melanoma
[43] = system: SK-MEL-28 melanoma
[44] = system: SK-MEL-5 melanoma
[45] = system: SK-OV-3 ovarian
[46] = system: SN12C renal
[47] = system: SNB-19 CNS
[48] = system: SR leukemia
[49] = system: SW-620 colon
[50] = system: TK-10 renal
[51] = system: U251 CNS
[52] = system: UACC-257 melanoma
[53] = system: UACC-62 melanoma
[54] = system: UO-31 renal
[55] = system: MALME-3M melanoma
[56] = system: RXF 393 renal
[57] = system: SNB-75 CNS

For COc1cc(C2S/C(=C/c3ccccc3)C(=O)N2c2cccc(Cl)c2)cc(OC)c1OC (stereo not drawn), the TGI [1] was > 100 µM, the TGI [2] was > 100 µM and the TGI [3] was > 100 µM. The TGI [4] was > 100 µM, the TGI [5] was 68.4 µM and the TGI [6] was > 100 µM. For the same compound, the TGI [7] was 73.4 µM, the TGI [8] was > 100 µM and the TGI [9] was 86.8 µM. For the same compound, the TGI [10] was > 100 µM, the TGI [11] was > 100 µM and the TGI [12] was > 100 µM. The TGI [13] was > 100 µM, the TGI [14] was > 100 µM and the TGI [15] was > 100 µM. For the same compound, the TGI [16] was > 100 µM, the TGI [17] was > 100 µM and the TGI [18] was > 100 µM. For the same compound, the TGI [19] was > 100 µM, the TGI [20] was > 100 µM and the TGI [21] was 55.1 µM. The TGI [22] was > 100 µM, the TGI [23] was > 100 µM and the TGI [24] was > 100 µM. The TGI [25] was 57.8 µM, the TGI [26] was > 100 µM and the TGI [27] was > 100 µM. For the same compound, the TGI [28] was > 100 µM, the TGI [29] was > 100 µM and the TGI [30] was > 100 µM. For the same compound, the TGI [31] was 41.7 µM, the TGI [32] was > 100 µM and the TGI [33] was > 100 µM. The TGI [34] was > 100 µM, the TGI [35] was > 100 µM and the TGI [36] was > 100 µM. The TGI [37] was > 100 µM, the TGI [38] was > 100 µM and the TGI [39] was > 100 µM. For the same compound, the TGI [40] was > 100 µM, the TGI [41] was > 100 µM and the TGI [42] was > 100 µM. The TGI [43] was > 100 µM, the TGI [44] was > 100 µM and the TGI [45] was > 100 µM. For the same compound, the TGI [46] was > 100 µM, the TGI [47] was > 100 µM and the TGI [48] was 83.3 µM. For the same compound, the TGI [49] was > 100 µM, the TGI [50] was > 100 µM and the TGI [51] was > 100 µM. The TGI [52] was 81.8 µM, the TGI [53] was > 100 µM and the TGI [54] was > 100 µM.
CC(C)C1(Cl)CCC2C3(C)CCCC(C)(C(=O)O)C3CC(Cl)C2(Cl)C1Cl (stereo not drawn) was tested, and the TGI [1] was > 100 µM, the TGI [2] was > 100 µM and the TGI [3] was > 100 µM. The TGI [4] was > 100 µM, the TGI [5] was > 100 µM and the TGI [6] was > 100 µM. The TGI [7] was > 100 µM, the TGI [8] was 37.2 µM and the TGI [10] was 91.3 µM. For the same compound, the TGI [11] was 81.9 µM, the TGI [12] was > 100 µM and the TGI [13] was > 100 µM. The TGI [14] was 62.6 µM, the TGI [15] was > 100 µM and the TGI [16] was > 100 µM. The TGI [17] was 50.4 µM, the TGI [18] was > 100 µM and the TGI [19] was > 100 µM. For the same compound, the TGI [20] was 37.7 µM, the TGI [21] was > 100 µM and the TGI [22] was > 100 µM. The TGI [55] was > 100 µM, the TGI [23] was > 100 µM and the TGI [24] was > 100 µM. For the same compound, the TGI [25] was 62.3 µM, the TGI [26] was > 100 µM and the TGI [27] was > 100 µM. For the same compound, the TGI [28] was 78.6 µM, the TGI [29] was > 100 µM and the TGI [30] was 75.2 µM. The TGI [31] was > 100 µM, the TGI [32] was > 100 µM and the TGI [34] was 84 µM. The TGI [35] was 94.7 µM, the TGI [36] was > 100 µM and the TGI [37] was > 100 µM. For the same compound, the TGI [38] was 62.7 µM, the TGI [39] was > 100 µM and the TGI [41] was 46.5 µM. The TGI [42] was > 100 µM, the TGI [43] was 72.1 µM and the TGI [44] was 82.5 µM. The TGI [46] was > 100 µM, the TGI [47] was > 100 µM and the TGI [48] was > 100 µM. For the same compound, the TGI [49] was > 100 µM, the TGI [50] was > 100 µM and the TGI [51] was 62.5 µM. The TGI [52] was > 100 µM, the TGI [53] was 84.4 µM and the TGI [54] was > 100 µM.
For COC(=O)Cc1c(C(=O)CC(C)(C)n2cnc(CCN3C(=O)CCC3=O)c2)[nH]c2ccccc12, the TGI [1] was > 100 µM, the TGI [3] was > 100 µM and the TGI [4] was > 100 µM. The TGI [5] was > 100 µM, the TGI [6] was > 100 µM and the TGI [7] was > 100 µM. For the same compound, the TGI [8] was > 100 µM, the TGI [9] was > 100 µM and the TGI [10] was > 100 µM. For the same compound, the TGI [12] was > 100 µM, the TGI [13] was > 100 µM and the TGI [15] was > 100 µM. For the same compound, the TGI [16] was > 100 µM, the TGI [17] was > 100 µM and the TGI [18] was > 100 µM. The TGI [19] was > 100 µM, the TGI [20] was > 100 µM and the TGI [21] was > 100 µM. The TGI [22] was > 100 µM, the TGI [55] was > 100 µM and the TGI [23] was > 100 µM. The TGI [24] was > 100 µM, the TGI [25] was > 100 µM and the TGI [26] was > 100 µM. For the same compound, the TGI [27] was > 100 µM, the TGI [28] was > 100 µM and the TGI [29] was > 100 µM. For the same compound, the TGI [30] was > 100 µM, the TGI [31] was > 100 µM and the TGI [32] was > 100 µM. The TGI [33] was > 100 µM, the TGI [34] was > 100 µM and the TGI [35] was > 100 µM. The TGI [36] was > 100 µM, the TGI [37] was > 100 µM and the TGI [56] was 96 µM. The TGI [39] was > 100 µM, the TGI [40] was > 100 µM and the TGI [41] was > 100 µM. For the same compound, the TGI [42] was > 100 µM, the TGI [43] was > 100 µM and the TGI [44] was > 100 µM. The TGI [45] was > 100 µM, the TGI [46] was > 100 µM and the TGI [47] was > 100 µM. For the same compound, the TGI [57] was > 100 µM, the TGI [48] was > 100 µM and the TGI [49] was > 100 µM. The TGI [50] was > 100 µM, the TGI [51] was > 100 µM and the TGI [52] was > 100 µM. For the same compound, the TGI [53] was > 100 µM and the TGI [54] was > 100 µM.
